The source made the active and inactive calls.
How the values were obtained:
[1] = target: T1, Histone-lysine N-methyltransferase NSD2 (Homo sapiens, UniProt O96028); format: biochemical
T1 sequence (O96028 whole entry): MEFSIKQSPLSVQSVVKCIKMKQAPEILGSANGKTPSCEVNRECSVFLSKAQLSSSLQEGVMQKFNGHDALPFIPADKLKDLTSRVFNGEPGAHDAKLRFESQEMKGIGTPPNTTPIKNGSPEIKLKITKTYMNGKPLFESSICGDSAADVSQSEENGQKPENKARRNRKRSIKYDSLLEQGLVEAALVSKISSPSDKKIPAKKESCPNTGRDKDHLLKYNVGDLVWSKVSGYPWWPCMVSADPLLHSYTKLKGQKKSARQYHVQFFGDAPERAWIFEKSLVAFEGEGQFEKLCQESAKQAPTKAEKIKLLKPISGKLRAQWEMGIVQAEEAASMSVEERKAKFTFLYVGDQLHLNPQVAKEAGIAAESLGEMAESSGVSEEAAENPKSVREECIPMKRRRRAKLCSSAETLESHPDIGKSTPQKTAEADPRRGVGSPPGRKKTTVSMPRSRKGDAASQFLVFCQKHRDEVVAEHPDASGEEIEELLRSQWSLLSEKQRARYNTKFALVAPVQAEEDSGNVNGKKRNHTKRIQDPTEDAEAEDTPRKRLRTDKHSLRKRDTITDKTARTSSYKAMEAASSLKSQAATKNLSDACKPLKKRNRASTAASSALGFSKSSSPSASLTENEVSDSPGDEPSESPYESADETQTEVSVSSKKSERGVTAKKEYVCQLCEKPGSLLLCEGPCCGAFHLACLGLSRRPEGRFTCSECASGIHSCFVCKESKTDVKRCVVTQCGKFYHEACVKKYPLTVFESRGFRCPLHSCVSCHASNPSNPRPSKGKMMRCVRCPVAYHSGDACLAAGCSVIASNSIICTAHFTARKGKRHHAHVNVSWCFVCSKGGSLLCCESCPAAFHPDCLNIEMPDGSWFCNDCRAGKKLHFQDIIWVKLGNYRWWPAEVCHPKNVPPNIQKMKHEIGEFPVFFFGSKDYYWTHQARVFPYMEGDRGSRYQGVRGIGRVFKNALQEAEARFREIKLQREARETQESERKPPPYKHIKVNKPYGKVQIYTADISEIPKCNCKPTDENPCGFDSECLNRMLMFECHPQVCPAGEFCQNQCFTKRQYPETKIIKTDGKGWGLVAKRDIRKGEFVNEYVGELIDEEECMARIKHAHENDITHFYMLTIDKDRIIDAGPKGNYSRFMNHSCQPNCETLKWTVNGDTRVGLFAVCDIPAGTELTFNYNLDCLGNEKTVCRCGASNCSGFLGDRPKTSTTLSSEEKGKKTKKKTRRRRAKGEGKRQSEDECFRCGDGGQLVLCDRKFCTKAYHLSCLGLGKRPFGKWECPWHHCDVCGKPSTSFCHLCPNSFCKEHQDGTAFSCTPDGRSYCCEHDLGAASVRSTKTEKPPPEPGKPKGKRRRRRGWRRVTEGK

[2] = target: Mitogen-activated protein kinase 10 (Homo sapiens, UniProt P53779); experiment: Dose response biochemical screening assay for inhibitors of c-Jun N-Terminal Kinase 3 (JNK3). [Related pubchem assays: 746 ]
Chain of Mitogen-activated protein kinase 10 (P53779 whole entry): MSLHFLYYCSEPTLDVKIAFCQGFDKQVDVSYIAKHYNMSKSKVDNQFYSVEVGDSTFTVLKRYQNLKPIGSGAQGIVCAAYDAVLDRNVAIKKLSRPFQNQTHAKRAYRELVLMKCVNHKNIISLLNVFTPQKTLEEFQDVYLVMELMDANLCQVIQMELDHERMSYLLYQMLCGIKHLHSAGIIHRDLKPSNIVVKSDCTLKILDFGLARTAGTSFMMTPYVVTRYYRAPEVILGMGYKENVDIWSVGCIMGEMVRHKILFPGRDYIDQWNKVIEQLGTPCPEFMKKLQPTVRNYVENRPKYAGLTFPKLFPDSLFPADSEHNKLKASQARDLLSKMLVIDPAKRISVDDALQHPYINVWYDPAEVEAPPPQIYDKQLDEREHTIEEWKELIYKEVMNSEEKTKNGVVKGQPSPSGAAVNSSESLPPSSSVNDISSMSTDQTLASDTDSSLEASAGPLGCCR

[3] = target: T2, E3 ubiquitin-protein ligase XIAP (Homo sapiens, UniProt P98170); experiment: XIAP antagonists, biochemical, IAP family, fluorescence polarization (AID 1018); format: functional
T2 sequence (P98170 whole entry): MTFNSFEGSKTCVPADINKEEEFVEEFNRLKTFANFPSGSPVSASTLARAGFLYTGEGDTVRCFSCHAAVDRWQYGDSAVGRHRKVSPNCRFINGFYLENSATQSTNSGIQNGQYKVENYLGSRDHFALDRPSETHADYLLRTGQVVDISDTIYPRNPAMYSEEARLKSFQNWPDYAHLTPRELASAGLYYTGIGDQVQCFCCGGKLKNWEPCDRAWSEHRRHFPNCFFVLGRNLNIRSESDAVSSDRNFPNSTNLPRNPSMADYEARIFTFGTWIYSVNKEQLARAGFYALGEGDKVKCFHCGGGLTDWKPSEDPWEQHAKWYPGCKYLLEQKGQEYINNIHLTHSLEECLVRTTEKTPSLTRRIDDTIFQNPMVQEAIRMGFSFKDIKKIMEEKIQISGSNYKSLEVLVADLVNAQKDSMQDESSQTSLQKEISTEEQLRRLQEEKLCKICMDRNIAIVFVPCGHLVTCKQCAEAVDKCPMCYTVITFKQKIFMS

[4] = target: T2, E3 ubiquitin-protein ligase XIAP; experiment: Counter Screen using XIAP-Bir3 for Chemical Antagonists of Bir1/2 domains of IAP-family anti-apoptotic proteins. [Related pubchem assays (depositor defined):AID1018, AID1449, AID1514, AID1638, AID1749, AID1750, AID488957, AID488963]
[5] = target: E3 ubiquitin-protein ligase Mdm2 (Homo sapiens, UniProt Q00987); experiment: enhancers of MDM2-luciferase reporter signal, concentration-effect titration, project on inhibitors of MDM2 ubiquitin ligase, cellular assay, luminescent readout, 384-well plate format (AID 1394); format: functional;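 also: MDM2 E3 inhibitors raise luminescence so EC50 is for signal enhancement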
Chain of E3 ubiquitin-protein ligase Mdm2 (Q00987 whole entry): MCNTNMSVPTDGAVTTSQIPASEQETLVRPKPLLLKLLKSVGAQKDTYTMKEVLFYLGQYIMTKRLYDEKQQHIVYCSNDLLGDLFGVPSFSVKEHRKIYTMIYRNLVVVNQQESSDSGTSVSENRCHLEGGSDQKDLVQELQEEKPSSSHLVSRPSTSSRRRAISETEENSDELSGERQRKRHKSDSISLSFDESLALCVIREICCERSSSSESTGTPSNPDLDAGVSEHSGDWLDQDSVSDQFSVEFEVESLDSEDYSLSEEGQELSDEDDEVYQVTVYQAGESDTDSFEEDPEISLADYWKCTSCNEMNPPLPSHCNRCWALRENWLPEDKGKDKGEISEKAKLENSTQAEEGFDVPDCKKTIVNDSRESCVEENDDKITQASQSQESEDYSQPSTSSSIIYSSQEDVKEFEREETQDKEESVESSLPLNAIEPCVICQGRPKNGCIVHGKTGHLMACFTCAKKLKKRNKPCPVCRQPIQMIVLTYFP

[6] = M. tuberculosis H37Rv growth inhibitors, H37Rv strain (AID 1626); format: functional
[7] = target: T3, Heat shock factor protein 1 (Mus musculus, UniProt P38532); experiment: HSF1 potentiators in luciferase reporter cells, confirmation, cell-based, NIH3T3, luminescence, dose retest (AID 435004); format: functional;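 also: stress induced by proteasome inhibitor MG132 added 30 min after compound; luciferase reporter driven by HSF1 response element in NIH3T3 cells; actives raise luminescence as potentiators of the MG132 stress response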
T3 sequence (P38532 whole entry): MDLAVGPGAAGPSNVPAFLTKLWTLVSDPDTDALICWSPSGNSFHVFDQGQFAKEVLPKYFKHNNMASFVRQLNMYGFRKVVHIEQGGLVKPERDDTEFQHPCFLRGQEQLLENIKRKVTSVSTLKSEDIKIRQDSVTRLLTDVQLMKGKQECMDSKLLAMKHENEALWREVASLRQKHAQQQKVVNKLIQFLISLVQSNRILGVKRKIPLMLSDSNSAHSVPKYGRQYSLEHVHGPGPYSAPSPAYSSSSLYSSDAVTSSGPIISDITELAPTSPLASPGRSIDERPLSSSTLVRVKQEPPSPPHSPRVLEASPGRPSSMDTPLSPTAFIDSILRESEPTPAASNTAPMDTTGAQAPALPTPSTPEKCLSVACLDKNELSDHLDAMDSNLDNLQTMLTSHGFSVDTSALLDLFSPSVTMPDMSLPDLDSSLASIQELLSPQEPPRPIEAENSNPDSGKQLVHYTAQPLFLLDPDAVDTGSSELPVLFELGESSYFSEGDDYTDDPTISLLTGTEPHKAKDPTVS

Ion channel NompC = Ion channel NompC (Danio rerio, UniProt Q7T1G6); experiment: Fluorescence counterscreen assay for TRPML3 agonists: dose response cell-based high-throughput screening assay to identify agonists of the transient receptor potential channel N1 (TRPN1). [Related pubchem assays: 1526, 1424, 1448 ]; format: functional
Chain of Ion channel NompC (Q7T1G6 whole entry): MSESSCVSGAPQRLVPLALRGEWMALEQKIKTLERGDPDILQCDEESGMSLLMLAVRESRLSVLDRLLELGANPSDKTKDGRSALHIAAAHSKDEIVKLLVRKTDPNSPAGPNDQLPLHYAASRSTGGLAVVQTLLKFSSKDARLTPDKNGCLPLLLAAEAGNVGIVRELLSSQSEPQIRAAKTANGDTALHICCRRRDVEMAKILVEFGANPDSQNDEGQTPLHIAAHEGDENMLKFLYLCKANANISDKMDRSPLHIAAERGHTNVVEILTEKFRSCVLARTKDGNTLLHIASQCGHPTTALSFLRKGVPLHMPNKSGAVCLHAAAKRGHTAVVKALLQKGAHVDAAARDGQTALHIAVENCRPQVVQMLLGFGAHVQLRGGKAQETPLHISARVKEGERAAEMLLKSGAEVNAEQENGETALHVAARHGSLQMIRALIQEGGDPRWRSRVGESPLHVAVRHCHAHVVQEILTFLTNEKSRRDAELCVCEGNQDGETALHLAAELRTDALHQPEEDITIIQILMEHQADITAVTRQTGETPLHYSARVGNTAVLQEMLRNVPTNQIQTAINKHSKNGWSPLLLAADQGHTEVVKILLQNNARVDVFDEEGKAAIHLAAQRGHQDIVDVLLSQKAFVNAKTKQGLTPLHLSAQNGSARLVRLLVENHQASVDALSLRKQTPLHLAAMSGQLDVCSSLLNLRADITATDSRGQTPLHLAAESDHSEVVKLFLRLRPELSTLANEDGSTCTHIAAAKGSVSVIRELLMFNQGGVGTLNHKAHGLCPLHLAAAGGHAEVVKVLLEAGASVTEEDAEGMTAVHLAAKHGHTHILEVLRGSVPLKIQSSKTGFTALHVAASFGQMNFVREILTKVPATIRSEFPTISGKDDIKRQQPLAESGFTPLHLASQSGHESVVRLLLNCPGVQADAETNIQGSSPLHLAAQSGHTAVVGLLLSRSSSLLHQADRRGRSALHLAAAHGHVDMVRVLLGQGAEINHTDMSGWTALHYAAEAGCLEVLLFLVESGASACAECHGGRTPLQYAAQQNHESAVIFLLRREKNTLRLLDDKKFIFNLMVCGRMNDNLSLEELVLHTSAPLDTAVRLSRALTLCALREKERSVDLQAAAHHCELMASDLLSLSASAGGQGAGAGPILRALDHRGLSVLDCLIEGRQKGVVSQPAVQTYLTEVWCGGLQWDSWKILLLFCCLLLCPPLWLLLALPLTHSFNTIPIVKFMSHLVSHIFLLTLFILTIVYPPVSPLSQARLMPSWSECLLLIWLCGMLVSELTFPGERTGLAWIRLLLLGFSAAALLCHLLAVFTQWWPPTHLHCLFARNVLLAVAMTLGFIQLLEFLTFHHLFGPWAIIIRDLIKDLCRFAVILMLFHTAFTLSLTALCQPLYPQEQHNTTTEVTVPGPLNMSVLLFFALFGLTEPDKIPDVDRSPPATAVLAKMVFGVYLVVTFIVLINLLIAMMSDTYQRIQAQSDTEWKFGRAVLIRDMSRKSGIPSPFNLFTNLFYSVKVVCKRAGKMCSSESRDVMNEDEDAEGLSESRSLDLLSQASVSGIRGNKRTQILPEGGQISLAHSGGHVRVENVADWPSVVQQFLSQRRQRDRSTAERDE

Mucolipin-3 = target: T4, Mucolipin-3 (Homo sapiens, UniProt Q8TDD5); experiment: Dose response cell-based high-throughput screening assay for agonists of the transient receptor potential channel ML3 (TRPML3). [Related pubchem assays: 1526, 1424, 1448 ]; format: functional
T4 sequence (Q8TDD5 whole entry): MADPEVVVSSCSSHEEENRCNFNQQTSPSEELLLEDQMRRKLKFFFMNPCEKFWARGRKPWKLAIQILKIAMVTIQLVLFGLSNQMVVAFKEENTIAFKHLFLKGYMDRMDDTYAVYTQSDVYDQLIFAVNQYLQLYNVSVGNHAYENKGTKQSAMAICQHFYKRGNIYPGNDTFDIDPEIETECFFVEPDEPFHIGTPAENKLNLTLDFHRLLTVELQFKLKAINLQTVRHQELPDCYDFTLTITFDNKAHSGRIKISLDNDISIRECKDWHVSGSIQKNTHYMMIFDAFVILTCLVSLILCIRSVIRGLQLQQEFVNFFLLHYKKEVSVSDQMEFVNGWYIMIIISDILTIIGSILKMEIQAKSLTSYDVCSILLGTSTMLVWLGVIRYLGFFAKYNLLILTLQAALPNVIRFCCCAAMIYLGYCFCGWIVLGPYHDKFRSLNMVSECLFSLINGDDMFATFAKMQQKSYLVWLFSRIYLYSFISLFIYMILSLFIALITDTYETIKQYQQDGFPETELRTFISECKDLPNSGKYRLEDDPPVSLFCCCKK

CNCc1ccccc1Sc1cccc(O)c1
AC50 [1]: > 20 µM (inactive)

CN1C=CC(=C2C(=O)c3ccccc3C2=O)C=C1
IC50 [2]: 28.5 µM (not active)

CCOC(=O)c1[nH]nc2ccccc12
IC50 [2]: > 31 µM (not active)

N#C/C(=C\c1ccc(-c2ccc(C(=O)O)cc2)o1)C(=O)NCC1CCCO1 (stereo unspecified)
AC50 [1]: > 20 µM (inactive)

CCSc1nnc(NC(=O)c2cc(-c3ccc(C)c(C)c3O)[nH]n2)s1
IC50 [3]: > 100 µM (not active) | IC50 [4]: > 100 µM (inactive)

O=C(Nc1ccc(-c2csnn2)cc1)C1CC1
EC50 [5]: 3.55 µM (not active) | IC50 [6]: > 100 µM (active)

Nc1cnn(Cc2ccc(F)cc2)c1
EC50 [7]: > 260 µM (inactive) | IC50 [6]: > 100 µM (active)

CC(SCc1ccccc1)C(=O)NCc1ccccn1 (stereo unspecified)
IC50 [3]: > 100 µM (not active) | IC50 [4]: > 100 µM (inactive)

COc1ccc(C(=O)Nc2ccc(S(=O)(=O)N3CCCCC3C)cc2)c(OC)c1OC (stereo unspecified)
EC50 (Ion channel NompC): > 29.9 µM (not active) | EC50 (Mucolipin-3): 1.78 µM (active)

Cc1cc(NC(=O)Cc2csc(-c3ccccc3)n2)ccc1Br
IC50 [3]: > 100 µM (not active) | IC50 [4]: > 100 µM (inactive)
